Measured values from the NIST ThermoML archive (doi:10.1021/je100472t).
Numbers after ± are expanded uncertainties.

Assay: xn = mol fraction of the nth substance listed
Conditions: 101 kPa, Liquid; for speed of sound: Pulse-echo method; for mass density: Vibrating tube method

c1ccncc1 [pyridine] + CCC(C)=O
Conditions	mass density [kg/m3]	speed of sound [m/s]
293.15 K, x2 = 0.0584	972.18 ± 0.098	1424.6 ± 0.87
293.15 K, x2 = 0.101	964.232 ± 0.1	1415.8 ± 0.87
293.15 K, x2 = 0.1557	954.114 ± 0.1	1404.3 ± 0.86
293.15 K, x2 = 0.2073	944.625 ± 0.1	1393.3 ± 0.86
293.15 K, x2 = 0.2479	937.177 ± 0.11	1384.6 ± 0.86
293.15 K, x2 = 0.2928	929.036 ± 0.11	1374.9 ± 0.86
293.15 K, x2 = 0.3534	918.142 ± 0.11	1361.8 ± 0.85
293.15 K, x2 = 0.3992	909.88 ± 0.11	1351.6 ± 0.85
293.15 K, x2 = 0.4535	900.169 ± 0.12	1339.5 ± 0.84
293.15 K, x2 = 0.4962	892.606 ± 0.12	1330 ± 0.84
293.15 K, x2 = 0.5461	883.748 ± 0.12	1318.7 ± 0.84
293.15 K, x2 = 0.5481	883.417 ± 0.12	1318.2 ± 0.84
293.15 K, x2 = 0.6003	874.227 ± 0.12	1306.4 ± 0.83
293.15 K, x2 = 0.6425	866.814 ± 0.13	1296.7 ± 0.83
293.15 K, x2 = 0.6948	857.663 ± 0.13	1284.5 ± 0.83
293.15 K, x2 = 0.7267	852.119 ± 0.13	1277.1 ± 0.83
293.15 K, x2 = 0.7519	847.742 ± 0.13	1271.2 ± 0.82
293.15 K, x2 = 0.8053	838.532 ± 0.14	1258.7 ± 0.82
293.15 K, x2 = 0.855	829.934 ± 0.14	1246.9 ± 0.82
293.15 K, x2 = 0.8907	823.832 ± 0.14	1238.4 ± 0.81
293.15 K, x2 = 0.9459	814.255 ± 0.14	1224.9 ± 0.81
298.15 K, x2 = 0.0517	968.413 ± 0.099	1405.7 ± 0.86
298.15 K, x2 = 0.1009	959.234 ± 0.1	1395.4 ± 0.86
298.15 K, x2 = 0.151	949.923 ± 0.1	1384.8 ± 0.86
298.15 K, x2 = 0.1952	941.811 ± 0.11	1375.4 ± 0.86
298.15 K, x2 = 0.2473	932.304 ± 0.11	1364.2 ± 0.85
298.15 K, x2 = 0.301	922.495 ± 0.11	1352.5 ± 0.85
298.15 K, x2 = 0.3559	912.585 ± 0.11	1340.4 ± 0.84
298.15 K, x2 = 0.4041	903.885 ± 0.12	1329.7 ± 0.84
298.15 K, x2 = 0.4494	895.816 ± 0.12	1319.6 ± 0.84
298.15 K, x2 = 0.4994	886.914 ± 0.12	1308.4 ± 0.83
298.15 K, x2 = 0.5472	878.48 ± 0.12	1297.6 ± 0.83
298.15 K, x2 = 0.5916	870.664 ± 0.12	1287.4 ± 0.83
298.15 K, x2 = 0.6951	852.55 ± 0.13	1263.5 ± 0.82
298.15 K, x2 = 0.7563	841.861 ± 0.13	1249.2 ± 0.82
298.15 K, x2 = 0.8029	833.777 ± 0.14	1238.1 ± 0.81
298.15 K, x2 = 0.8525	825.199 ± 0.14	1226.2 ± 0.81
298.15 K, x2 = 0.8944	817.974 ± 0.14	1216.2 ± 0.81
298.15 K, x2 = 0.9525	808.018 ± 0.14	1202.3 ± 0.8
303.15 K, x2 = 0.0589	962.089 ± 0.1	1384.7 ± 0.86
303.15 K, x2 = 0.117	951.238 ± 0.1	1372.5 ± 0.85
303.15 K, x2 = 0.162	942.929 ± 0.1	1362.9 ± 0.85
303.15 K, x2 = 0.2056	934.925 ± 0.11	1353.6 ± 0.85
303.15 K, x2 = 0.2489	926.99 ± 0.11	1344.2 ± 0.85
303.15 K, x2 = 0.3075	916.353 ± 0.11	1331.5 ± 0.84
303.15 K, x2 = 0.3506	908.572 ± 0.12	1322 ± 0.84
303.15 K, x2 = 0.4016	899.409 ± 0.12	1310.8 ± 0.83
303.15 K, x2 = 0.4494	890.804 ± 0.12	1300 ± 0.83
303.15 K, x2 = 0.4959	882.52 ± 0.12	1289.5 ± 0.83
303.15 K, x2 = 0.5482	873.285 ± 0.12	1277.7 ± 0.82
303.15 K, x2 = 0.5967	864.734 ± 0.13	1266.6 ± 0.82
303.15 K, x2 = 0.6484	855.625 ± 0.13	1254.6 ± 0.82
303.15 K, x2 = 0.6972	847.054 ± 0.13	1243.1 ± 0.81
303.15 K, x2 = 0.7446	838.804 ± 0.14	1232.1 ± 0.81
303.15 K, x2 = 0.7952	829.99 ± 0.14	1220 ± 0.81
303.15 K, x2 = 0.8476	820.935 ± 0.14	1207.6 ± 0.8
303.15 K, x2 = 0.8928	813.143 ± 0.14	1196.8 ± 0.8
303.15 K, x2 = 0.9371	805.515 ± 0.14	1186 ± 0.8
